# Legend:
# Format in all cases: functional, cell-based
# [1] = test system: OVCAR-5; experiment: Antiproliferative activity against human OVCAR5 cells assessed as reduction in cell viability after 48 hrs by SRB assay; settings: OVCAR-5, 48 h
# [2] = test system: CCRF-CEM; experiment: Antiproliferative activity against human CCRF-CEM cells assessed as reduction in cell viability after 48 hrs by SRB assay
# [3] = test system: SR; experiment: Antiproliferative activity against human SR cells assessed as reduction in cell viability after 48 hrs by SRB assay
# [4] = test system: K562; experiment: Antiproliferative activity against human K562 cells assessed as reduction in cell viability after 48 hrs by SRB assay; settings: K562, 48 h
# [5] = test system: SF-539; experiment: Antiproliferative activity against human SF539 cells assessed as reduction in cell viability after 48 hrs by SRB assay; settings: SF-539, 48 h
# [6] = test system: RPMI-8226; experiment: Antiproliferative activity against human RPMI8226 cells assessed as reduction in cell viability after 48 hrs by SRB assay; settings: RPMI-8226, 48 h
# [7] = test system: BT-549; experiment: Antiproliferative activity against human BT549 cells assessed as reduction in cell viability after 48 hrs by SRB assay; settings: BT-549, 48 h
# [8] = test system: SF-268; experiment: Antiproliferative activity against human SF268 cells assessed as reduction in cell viability after 48 hrs by SRB assay; settings: SF-268, 48 h
# [9] = test system: IGROV-1; experiment: Antiproliferative activity against human IGROV1 cells assessed as reduction in cell viability after 48 hrs by SRB assay; settings: IGROV-1, 48 h
# [10] = test system: T47D; experiment: Antiproliferative activity against human T47D cells assessed as reduction in cell viability after 48 hrs by SRB assay
# [11] = test system: SK-OV-3; experiment: Antiproliferative activity against human SKOV3 cells assessed as reduction in cell viability after 48 hrs by SRB assay; settings: SK-OV-3, 48 h
# [12] = test system: MCF7; experiment: Antiproliferative activity against human MCF7 cells assessed as reduction in cell viability after 48 hrs by SRB assay; settings: MCF7, 48 h
# [13] = test system: UO-31; experiment: Antiproliferative activity against human UO31 cells assessed as reduction in cell viability after 48 hrs by SRB assay; settings: UO-31, 48 h
# [14] = test system: HL-60(TB); experiment: Antiproliferative activity against human HL-60(TB) cells assessed as reduction in cell viability after 48 hrs by SRB assay; settings: HL-60, 48 h
# [15] = test system: HCT-116; experiment: Antiproliferative activity against human HCT116 cells assessed as reduction in cell viability after 48 hrs by SRB assay; settings: HCT-116, 48 h
# [16] = test system: SF-295; experiment: Antiproliferative activity against human SF295 cells assessed as reduction in cell viability after 48 hrs by SRB assay; settings: SF-295, 48 h
# [17] = test system: ACHN; experiment: Antiproliferative activity against human ACHN cells assessed as reduction in cell viability after 48 hrs by SRB assay
# [18] = test system: A498; experiment: Antiproliferative activity against human A498 cells assessed as reduction in cell viability after 48 hrs by SRB assay; settings: A498, 48 h
# [19] = test system: 786-0; experiment: Antiproliferative activity against human 786-0 cells assessed as reduction in cell viability after 48 hrs by SRB assay; settings: 786-0, 48 h
# [20] = test system: Hs-578T; experiment: Antiproliferative activity against human Hs 578T cells assessed as reduction in cell viability after 48 hrs by SRB assay
# [21] = test system: OVCAR-4; experiment: Antiproliferative activity against human OVCAR4 cells assessed as reduction in cell viability after 48 hrs by SRB assay; settings: OVCAR-4, 48 h
# [22] = test system: HCC 2998; experiment: Antiproliferative activity against human HCC2998 cells assessed as reduction in cell viability after 48 hrs by SRB assay; settings: HCC 2998, 48 h
# [23] = test system: SNB-75; experiment: Antiproliferative activity against human SNB75 cells assessed as reduction in cell viability after 48 hrs by SRB assay; settings: SNB-75, 48 h
# [24] = test system: KM12; experiment: Antiproliferative activity against human KM12 cells assessed as reduction in cell viability after 48 hrs by SRB assay; settings: KM12, 48 h
# [25] = test system: MDA-MB-435; experiment: Antiproliferative activity against human MDA-MB-435 cells assessed as reduction in cell viability after 48 hrs by SRB assay; settings: MDA-MB-435, 48 h
# [26] = test system: OVCAR-3; experiment: Antiproliferative activity against human OVCAR3 cells assessed as reduction in cell viability after 48 hrs by SRB assay; settings: OVCAR-3, 48 h
# [27] = test system: HCT-15; experiment: Antiproliferative activity against human HCT15 cells assessed as reduction in cell viability after 48 hrs by SRB assay; settings: HCT-15, 48 h
# [28] = test system: NCI/ADR-RES; experiment: Antiproliferative activity against human NCI/ADR-RES cells assessed as reduction in cell viability after 48 hrs by SRB assay
# [29] = test system: DU-145; experiment: Antiproliferative activity against human DU145 cells assessed as reduction in cell viability after 48 hrs by SRB assay; settings: DU-145, 48 h
# [30] = test system: HT-29; experiment: Antiproliferative activity against human HT-29 cells assessed as reduction in cell viability after 48 hrs by SRB assay; settings: HT-29, 48 h
# [31] = test system: COLO 205; experiment: Antiproliferative activity against human COLO205 cells assessed as reduction in cell viability after 48 hrs by SRB assay; settings: COLO 205, 48 h
# [32] = test system: SNB-19; experiment: Antiproliferative activity against human SNB19 cells assessed as reduction in cell viability after 48 hrs by SRB assay; settings: SNB-19, 48 h
# [33] = test system: HOP-92; experiment: Antiproliferative activity against human HOP92 cells assessed as reduction in cell viability after 48 hrs by SRB assay; settings: HOP-92, 48 h
# [34] = test system: U-251; experiment: Antiproliferative activity against human U251 cells assessed as reduction in cell viability after 48 hrs by SRB assay; settings: U-251, 48 h
# [35] = test system: PC-3; experiment: Antiproliferative activity against human PC3 cells assessed as reduction in cell viability after 48 hrs by SRB assay; settings: PC-3, 48 h
# [36] = test system: SW-620; experiment: Antiproliferative activity against human SW620 cells assessed as reduction in cell viability after 48 hrs by SRB assay; settings: SW-620, 48 h
# [37] = test system: CAKI-1; experiment: Antiproliferative activity against human CAKI-1 cells assessed as reduction in cell viability after 48 hrs by SRB assay; settings: CAKI-1, 48 h
# [38] = test system: MOLT-4; experiment: Antiproliferative activity against human MOLT4 cells assessed as reduction in cell viability after 48 hrs by SRB assay; settings: MOLT-4, 48 h
# [39] = test system: OVCAR-8; experiment: Antiproliferative activity against human OVCAR8 cells assessed as reduction in cell viability after 48 hrs by SRB assay; settings: OVCAR-8, 48 h
# [40] = test system: UACC-62; experiment: Antiproliferative activity against human UACC62 cells assessed as reduction in cell viability after 48 hrs by SRB assay; settings: UACC-62, 48 h, pooled result: one value given for 8 cell lines, strains, targets or settings
# [41] = test system: MDA-MB-468; experiment: Antiproliferative activity against human MDA-MB-468 cells assessed as reduction in cell viability after 48 hrs by SRB assay; settings: MDA-MB-468, 48 h
# [42] = test system: MDA-MB-231; experiment: Antiproliferative activity against human MDA-MB-231 cells assessed as reduction in cell viability after 48 hrs by SRB assay; settings: MDA-MB-231, 48 h
# [43] = test system: SN12C; experiment: Antiproliferative activity against human SN12C cells assessed as reduction in cell viability after 48 hrs by SRB assay
# [44] = test system: TK-10; experiment: Antiproliferative activity against human TK10 cells assessed as reduction in cell viability after 48 hrs by SRB assay; settings: TK-10, 48 h
# [45] = test system: RXF 393; experiment: Antiproliferative activity against human RXF393 cells assessed as reduction in cell viability after 48 hrs by SRB assay; settings: RXF 393, 48 h
# [46] = test system: NCI-H522; experiment: Antiproliferative activity against human NCI-H522 cells assessed as reduction in cell viability after 48 hrs by SRB assay; settings: NCI-H522, 48 h, pooled result: one value given for 8 cell lines, strains, targets or settings
smiles,measurement,setting,value
"C/C=C(\C)C(=O)O[C@H]1C=CC(=O)O[C@H]1CC[C@H](O)[C@H](C)O [6,7-DIHYDROPHOMOPSOLIDE B]",IC50,[1],18 µM
same,IC50,[2],2 to 49 µM
same,IC50,[3],2 to 49 µM
same,IC50,[4],2 to 49 µM
same,IC50,[5],17 µM
same,IC50,[6],2 to 49 µM
same,IC50,[7],2 to 49 µM
same,IC50,[8],17 µM
same,IC50,[9],18 µM
same,IC50,[10],11 µM
same,IC50,[11],18 µM
same,IC50,[12],11 µM
same,IC50,[13],2 to 49 µM
same,IC50,[14],2 to 49 µM
same,IC50,[15],2 to 49 µM
same,IC50,[16],17 µM
same,IC50,[17],2 to 49 µM
same,IC50,[18],2 to 49 µM
same,IC50,[19],2 to 49 µM
same,IC50,[20],11 µM
same,IC50,[21],18 µM
same,IC50,[22],2 to 49 µM
same,IC50,[23],17 µM
same,IC50,[24],2 to 49 µM
same,IC50,[25],11 µM
same,IC50,[26],18 µM
same,IC50,[27],2 to 49 µM
same,IC50,[28],11 µM
same,IC50,[29],18 µM
same,IC50,[30],2 to 49 µM
same,IC50,[31],2 to 49 µM
same,IC50,[32],17 µM
same,IC50,[33],2 to 49 µM
same,IC50,[34],17 µM
same,IC50,[35],18 µM
same,IC50,[36],2 to 49 µM
same,IC50,[37],2 to 49 µM
same,IC50,[38],2 to 49 µM
same,IC50,[39],18 µM
same,IC50,[40],2 to 49 µM
same,IC50,[41],2 to 49 µM
same,IC50,[42],11 µM
same,IC50,[43],2 to 49 µM
same,IC50,[44],2 to 49 µM
same,IC50,[45],2 to 49 µM
same,IC50,[46],18 µM
C/C=C(\C)C(=O)O[C@H]1C=CC(=O)O[C@H]1COC(=O)[C@H](C)O,IC50,[1],16 µM
same,IC50,[2],2 to 49 µM
same,IC50,[3],2 to 49 µM
same,IC50,[4],2 to 49 µM
same,IC50,[5],16 µM
same,IC50,[6],2 to 49 µM
same,IC50,[7],2 to 49 µM
same,IC50,[8],16 µM
same,IC50,[9],16 µM
same,IC50,[10],12 µM
same,IC50,[11],16 µM
same,IC50,[12],12 µM
same,IC50,[13],15 µM
same,IC50,[14],2 to 49 µM
same,IC50,[15],11 µM
same,IC50,[16],16 µM
same,IC50,[17],15 µM
same,IC50,[18],15 µM
same,IC50,[19],15 µM
same,IC50,[20],12 µM
same,IC50,[21],16 µM
same,IC50,[22],11 µM
same,IC50,[23],16 µM
same,IC50,[24],11 µM
same,IC50,[25],12 µM
same,IC50,[26],16 µM
same,IC50,[27],11 µM
same,IC50,[28],12 µM
same,IC50,[29],16 µM
same,IC50,[30],11 µM
same,IC50,[31],11 µM
same,IC50,[32],16 µM
same,IC50,[33],2 to 49 µM
same,IC50,[34],16 µM
same,IC50,[35],16 µM
same,IC50,[36],11 µM
same,IC50,[37],15 µM
same,IC50,[38],2 to 49 µM
same,IC50,[39],16 µM
same,IC50,[40],13 µM
same,IC50,[41],2 to 49 µM
same,IC50,[42],12 µM
same,IC50,[43],15 µM
same,IC50,[44],15 µM
same,IC50,[45],15 µM
same,IC50,[46],19 µM
